In US11760754B2, “Heterocyclic mitochondrial activity inhibitors and uses thereof” (UNIVERSITÉ DE MONTRÉAL, priority 2017, dated 2023):

Columns and labels:
[1] = test system: AML patient cells; assay: Primary AML patient cell dose-response viability assay (chemical screen); conditions: 41 AML patient specimens, primary screen
[2] = test system: OCI-AML3 cells; assay: OCI-AML3 cell growth inhibition, dose-response viability assay (CellTiterGlo); assay type: cell-based; conditions: for EC50: Homo sapiens, OCI-AML-3, 144 h, read-out: AML-3 EC50
How it was run: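 OCI-AML3 cells seeded, then exposed to compound in serial dilutions from 10 μM to 0.5 nM, in duplicate or quadruplicate. Viability read by CellTiter-Glo.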

[3] = test system: MLL-AF9 cells; assay: MLL-AF9 leukemia cell growth inhibition, dose-response viability assay (CellTiterGlo); assay type: cell-based, murine; conditions: Mus musculus, MLL-AF9, 120 h, read-out: MLL-AF9 EC50
How it was run: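 Murine MLL-AF9 leukemia cells (female, MSCV MLL-AF9 IRES Puro transduced) were treated with serial compound dilutions from 10 μM to 0.5 nM in duplicates or quadruplicates. Viability read by CellTiterGlo dose-response.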

EC50 [2] [nM]	EC50 [3] [nM]	SMILES	sensitivity of AML patient specimens [1]	OCI-AML3 cells sensitive to the compound (dose response) ([2]; OCI-AML3 cells)
–	–	CS(=O)(=O)CCNCc1ccc(-c2ccc3ncnc(Nc4ccc(OCc5cccc(F)c5)c(Cl)c4)c3c2)o1 [Lapatinib, Lapatinib ditosylate, reference compound]	resistant	not
1000 to 10000	1000 to 10000	NCCc1nccn1CCCCc1ccc(OCc2coc(/C=C/c3ccc(C(F)(F)F)cc3)n2)cc1 [Compound 52, (E)-2-(1-(4-(4-((2-(4-(trifluoromethyl)styryl)oxazol-4-yl)methoxy)phenyl)butyl)-1H-imidazol-2-yl)ethanamine]	–	–
500 to 1000	1000 to 10000	NC(=O)c1ccc(/C=C/c2nc(COc3ccc(CCCCn4ccnn4)cc3)co2)cc1 [Compound 63, (E)-4-(2-(4-((4-(4-(1H-1,2,3-triazol-1-yl)butyl)phenoxy)methyl)oxazol-2-yl)vinyl)benzamide]	–	–
500 to 1000	100 to 500	COCCNC(=O)OCCc1cn(CCCCc2ccc(OCc3coc(/C=C/c4ccc(C(F)(F)F)cc4)n3)cc2)nn1 [Compound 69, (E)-2-(1-(4-(4-((2-(4-(trifluoromethyl)styryl)oxazol-4-yl)methoxy)phenyl)butyl)-1H-1,2,3-triazol-4-yl)ethyl (2-methoxyethyl)carbamate]	–	–
1000 to 10000	500 to 1000	Fc1cc(C(F)(F)F)ccc1/C=C/c1nc(Cc2ccc(CCCCn3ccnn3)cc2)co1 [Compound 134, (E)-4-(4-(4-(1H-1,2,3-triazol-1-yl)butyl)benzyl)-2-(2-fluoro-4-(trifluoromethyl)styryl)oxazole]	–	–
500 to 1000	100 to 500	O=S(=O)(NCCc1nccn1CCCCc1ccc(OCc2coc(/C=C/c3ccc(C(F)(F)F)cc3)n2)cc1)C(F)(F)F [Compound 55, (E)-1,1,1-trifluoro-N-(2-(1-(4-(4-((2-(4-(trifluoromethyl)styryl)oxazol-4-yl)methoxy)phenyl)butyl)-1H-imidazol-2-yl)ethyl)methanesulfonamide]	–	–
< 50	< 50	Fc1cc(F)c2cc(-c3nc(COc4ccc(CCCCn5ccnn5)cc4)co3)[nH]c2c1 [Compound 128, 4-((4-(4-(1H-1,2,3-triazol-1-yl)butyl)phenoxy)methyl)-2-(4,6-difluoro-1H-indol-2-yl)oxazole]	–	–
50 to 100	50 to 100	Fc1ccc(/C=C/c2nc(COc3ccc(CCCCn4ccnn4)cc3)co2)cc1F [Compound 121, (E)-4-((4-(4-(1H-1,2,3-triazol-1-yl)butyl)phenoxy)methyl)-2-(3,4-difluorostyryl)oxazole]	–	–
1000 to 10000	1000 to 10000	Fc1cc(C(F)(F)F)ccc1/C=C/c1nc(COc2ccc(CCCCn3ncnn3)cc2)co1 [Compound 110, (E)-4-((4-(4-(2H-tetrazol-2-yl)butyl)phenoxy)methyl)-2-(2-fluoro-4-(trifluoromethyl)styryl)oxazole]	–	–
1000 to 10000	1000 to 10000	FC(F)(F)c1ccc(/C=C/c2nc(COc3ccc(CCCn4ccnn4)cc3)co2)c(-n2nccn2)c1 [Compound 106, (E)-4-((4-(3-(1H-1,2,3-triazol-1-yl)propyl)phenoxy)methyl)-2-(2-(2H-1,2,3-triazol-2-yl)-4-(trifluoromethyl)styryl)oxazole]	–	–
1000 to 10000	500 to 1000	CN(C)c1cccc2c(S(=O)(=O)NCCNC(=O)c3ccc(/C=C/c4nc(COc5ccc(CCCCn6ccnn6)cc5)co4)cc3)cccc12 [Compound 72, (E)-4-(2-(4-((4-(4-(1H-1,2,3-triazol-1-yl)butyl)phenoxy)methyl)oxazol-2-yl)vinyl)-N-(2-(5-(dimethylamino)naphthalene-1-sulfonamido)ethyl)benzamide]	–	–
1000 to 10000	100 to 500	O=C(CCO)NCCCCc1ccc(OCc2coc(/C=C/c3ccc(C(F)(F)F)cc3)n2)cc1 [Compound 86, (E)-3-hydroxy-N-(4-(4-((2-(4-(trifluoromethyl)styryl)oxazol-4-yl)methoxy)phenyl)butyl) propanamide]	–	–
> 10000	1000 to 10000	Fc1cc(C(F)(F)F)ccc1/C=C/c1nc(COc2ccc(CCCCc3ncccn3)cc2)co1 [Compound 139, (E)-2-(2-fluoro-4-(trifluoromethyl)styryl)-4-((4-(4-(pyrimidin-2-yl)butyl)phenoxy)methyl)oxazole]	–	–
50 to 100	< 50	Fc1cc(C(F)(F)F)ccc1/C=C/c1nc(COc2ccc(CCCCn3ccnn3)cc2)co1 [Compound 48, (E)-4-((4-(4-(1H-1,2,3-triazol-1-yl)butyl)phenoxy)methyl)-2-(2-fluoro-4-(trifluoromethyl)styryl)oxazole]	–	–
100 to 500	100 to 500	FC(F)(F)Oc1ccc(/C=C/c2nc(COc3ccc(CCCCn4ccnn4)cc3)co2)cc1 [Compound 2]	–	–
< 50	< 50	Fc1cc(F)c2cc(-c3nc(COc4ccc(SCCCn5ccnn5)cc4)co3)[nH]c2c1 [Compound 144, 4-((4-((3-(1H-1,2,3-triazol-1-yl)propyl)thio)phenoxy)methyl)-2-(4,6-difluoro-1H-indol-2-yl)oxazole]	–	–
50 to 100	50 to 100	Fc1cnccc1/C=C/c1nc(COc2ccc(CCCCn3ccnn3)cc2)co1 [Compound 81, (E)-4-((4-(4-(1H-1,2,3-triazol-1-yl)butyl)phenoxy)methyl)-2-(2-(3-fluoropyridin-4-yl)vinyl)oxazole]	–	–
